The values that follow come from patent publication US20100288276A1, “COMPOSITIONS FOR TREATING PARKINSON'S DISEASE” (VECTURAL LIMITED, priority 2007, published 2010).

The nature of data set [1]: Pharmacokinetics after pulmonary inhalation of apomorphine. The following applies: for AUC(0-t) / AUC(0-inf) / Cmax / Tmax: human, plasma, inhaled or intranasal; for AUC(0-t): read-out: AUC(0-t), Mean (SD) (converted); for AUC(0-inf): read-out: AUC(0-∞), Mean (SD) (converted); for Cmax: read-out: Cmax, Mean (SD). Type of data set: in vivo, patients.
Data set [2] relates to Parkinson's Disease patients. The data set is described as follows: Therapeutic effect (conversion from off to on state) after pulmonary inhalation, clinical trial. It is filed as in vivo.
Data set [3] can be described thus: Safety results: treatment emergent adverse events after inhaled apomorphine. It is filed as in vivo, patients. As to conditions: Nominal Doses of 400 μg, 1000 μg and 1600 μg. The protocol:
Safety results: Few patients experienced treatment emergent adverse events (TEAEs) and there were no notable differences in incidence or types of TEAEs among the treatment groups. […] Most common TEAEs at <24 h post dose were nervous system disorders.

A short description of data set [4]: Visual assessment of pMDI suspension formulations. Type of data set: physicochemical. On the procedure: Nine formulations (see Table 1 and Table 2) were manufactured.
Reduction of the drug concentration (300 μg/50 μl) was investigated in Formulations 4-6 (see FIGS. 5-8).

The conditions of data set [5]: nasal administration; cited from earlier work.
Data set [6] has as its system Parkinson's Disease patients. The following applies: injected under the skin; cited from earlier work.
Data set [7] in a line: Solubility in pMDI propellant formulations. Type of data set: physicochemical. The following applies: within ethanol-based HFA 134a pMDI formulations. The protocol: Previously a low dose (<25 μg/50 μl) HFA134a/HFA 227 solution formulation has been produced but only at high ethanol contents (50% w/w).
The mark [8] stands for this setting: 1000 μg inhaled, N = 6, 30% apomorphine in 70% lactose blend.

Where a name gives a salt, the structure may show the parent alone. Read-outs that look alike come from different tables or passages of the source.

The term AUC(0-t) denotes the area under the concentration-time curve up to a stated or last time point. What is called Cmax is the peak of the concentration-time curve. One may read the Tmax as the time from dosing to the highest level. For the compound `CN1CCc2cccc3c2[C@H]1Cc1ccc(O)c(O)c1-3` [Apomorphine, apomorphine], the “k, Mean (SD)” value in data set [1] (400 μg inhaled, N = 6, 20% apomorphine in 80% lactose blend) is given as 0.01 (0.00); in data set [1] (setting [8]), 0.01 (0.00); in data set [1] (1600 μg inhaled, N = 6, 30% apomorphine in 70% lactose blend) it was 0.02 (0.00). Further, the “tmax, Mean (SD)” value in data set [1] (400 μg inhaled, N = 6, 20% apomorphine in 80% lactose blend, in min) was 1.0 (0.0). For the same compound, the “AUC(0-∞), Mean (SD)” value in data set [1] (setting [8]) is 216.93 (99.30) ng · min/mL. The results for the AUC(0-t) in data set [1] (400 ug), in data set [1] (1000 ug) and in data set [1] (1600 ug) were 0.792 ng·h/mL, 2.81 ng·h/mL and 4.51 ng·h/mL, respectively. Further, the AUC(0-inf) is 0.945 ng·h/mL in data set [1] (400 ug) and 5.03 ng·h/mL in data set [1] (1600 ug). The figures for the Cmax in data set [1] (400 ug), in data set [1] (1000 ug) and in data set [1] (1600 ug) were 3.03 ng/mL, 10 ng/mL and 11.9 ng/mL, respectively. Moreover, the Tmax in data set [1] (1000 ug, 1000 μg inhaled, N = 6, 30% apomorphine in 70% lactose blend, read-out: tmax, Mean (SD) (converted)) was 2.6 min; in data set [1] (1600 ug, 1600 μg inhaled, N = 6, 30% apomorphine in 70% lactose blend, read-out: tmax, Mean (SD) (converted)), 2.2 min; in data set [1] (Tmax / time of peak apomorphine plasma concentration, pulmonary inhalation), 1 to 3 min; in data set [5] it was “approximately 15 minutes”. The “dose proportionality of AUC(0-t), AUC(0-∞) and Cmax” value in data set [1] (pulmonary inhalation, 400-1600 μg) is on record as “Dose proportionality was observed”. Also, the “mean duration of the therapeutic effect” value in data set [2] (clinical trial, pulmonary inhalation) came to 75 min. Moreover, the “onset of the therapeutic effect (conversion)” value in data set [2] (majority of patients, after inhaling apomorphine) was ≤ 10 min. For the same compound, in data set [2] (some patients, as quickly as, pulmonary inhalation), the “conversion from the off to the on state” value was determined as 2 min. In data set [3], the tolerability entry is listed as “well tolerated”. For the same compound, the “suspension behaviour (visual assessment)” value in data set [4] (264 μg/50 μl suspension in HFA 227) is “cream (float)”; in data set [4] (300 μg/50 μl in pure HFA134a) it was “rapidly sediment”; in data set [4] (600 μg/50 μl in pure HFA134a) it was “rapidly sedimented”. The density entry in data set [4] (density matched at approximately 60% w/w HFA 227 and 40% w/w HFA134a) is “about 1.33 g/ml”. In addition, the “period for which the effect is maintained” value in data set [6] is “about 60 minutes”. In addition, the “time to bring about an on time” value in data set [6] is 7 to 10 min.

With `CN1CCc2cccc3c2[C@H]1Cc1ccc(O)c(O)c1-3` [apomorphine hydrochloride], in data set [7], the solubility result is recorded as “low solubility”.
